The test system of data set [1] is FADD-deficient Jurkat cells. The data set can be described thus: Cellular necroptosis assay (human TNFα-induced). The format is cell-based. To be noted: read-out: Cell IC50. The protocol: Ten concentrations of the test compounds were assessed in duplicate in two different test occasions. […] The day of the experiment cells were diluted to a density of […] (5,000 cells/well) with culture medium and added (40 μL) into the 384-well plate containing 0.2 μL/well of test compounds and reference compounds (CRCs) (200×). Cell plates were then incubated at 37° C.-5% CO2. After 30 min, necroptotic cell death was induced with human TNFα (10 ng/mL) and cell viability was evaluated 48 h later by measuring cellular ATP levels using CellTiter-Glo® kit (Promega). Luminescence was read by using Victor V (Perkin Elmer) multilabel plate reader.

The conditions of data set [2]: in vivo.
Protocol: The protein binding in plasma was determined using a Rapid Equilibrium Dialysis Device (Thermo Scientific RED Device) or 96-well dialyzer apparatus (HTDialysis LLC). […] If required, plasma samples were pre-incubated (2 hours at 37° C.) with diisopropyl fluorophosphate (DFP) at the final concentration of 100 μM to prevent compound degradation due to amide hydrolysis. Appropriate volumes of spiked samples along with blank phosphate buffer were added to either device and incubated at 37° C. for a total of 5 hours with agitation at 500 rpm. Following incubation, an equal aliquot of dialysed matrix (plasma or buffer) is added to an equal volume of the opposite blank matrix such that the volume of buffer to plasma are equal. Mixed matrix samples were extracted by protein precipitation using acetonitrile containing the appropriate IS. Samples were then centrifuged for 10 min at 2800 rpm. Supernatants were collected and diluted and then injected on to an HPLC-MS/MS or UPLC-MS/MS system. Samples were analyzed by monitoring the appropriate parent/daughter ion transitions for the test and control compounds. The peak area ratios were used to measure test item concentrations. The fraction unbound (Afu) was determined as the ratio of the peak area ratio in buffer divided by the peak area ratio in plasma.
The PK properties of test articles were determined in male Sprague-Dawley Crl:CD(SD) rats, male Beagle dogs and male cynomolgus monkeys. Studies were conducted to the highest standards of animal welfare in accordance with national legislation and under approval of the internal animal care and use committees.
Compounds were administered by IV bolus to animals following an overnight fast. […] The formulations were administered at dose volumes ranging from 0.5-2 mL/kg. The IV dose ranged from 0.5-1 mg/kg.
Following dose administration, 8-9 serial blood samples were collected over 24 hours. Samples were mixed with anticoagulant and placed on wet ice prior to processing. Plasma was harvested following centrifugation, extracted using protein precipitation with acetonitrile containing IS. The processed supernatant was analyzed using UPLC or LC-MS/MS using specific parent/daughter ion pairs for the test article and IS. Plasma concentrations were determined using a calibration curve prepared using known concentrations of analyte. Pharmacokinetic parameters utilizing measured concentrations were calculated using Phoenix WinNonlin. The unbound plasma clearance was calculated as the ratio of the total body clearance divided by the fraction unbound in plasma.
For another data set, the target named is GST-hRIPK1 (8-327) (Homo sapiens (Human), UniProt Q13546). The data set can be described thus: Fluorescent Polarization Binding (FP Binding) assay. Particulars: 10 nM GST-hRIPK1 (8-327), 5 nM fluorescent labeled ligand; read-out: FP IC50. The protocol:
Fluorescent Polarization Binding (FP Binding) assay (Berger S. B. et al. […] Maki J. L. et al. […] Test Compounds were serially diluted in DMSO at 100 fold final concentrations in the assay (1% DMSO final). […] For negative control the enzyme addition was replaced by assay buffer only. After addition of 5 μL of fluorescent labeled ligand at twice the final concentrations in assay buffer, the plate was incubated at RT for 30 min.

The mark [3] stands for this setting: Homo sapiens, 48 h, human TNFα 10 ng/mL, viability after 48 h.

Like-named read-outs stand apart in the source and are kept apart here.

A word on the IC50: it is the concentration at which inhibition is half-maximal.

Sequence of GST-hRIPK1 (8-327) (Q13546 8-327): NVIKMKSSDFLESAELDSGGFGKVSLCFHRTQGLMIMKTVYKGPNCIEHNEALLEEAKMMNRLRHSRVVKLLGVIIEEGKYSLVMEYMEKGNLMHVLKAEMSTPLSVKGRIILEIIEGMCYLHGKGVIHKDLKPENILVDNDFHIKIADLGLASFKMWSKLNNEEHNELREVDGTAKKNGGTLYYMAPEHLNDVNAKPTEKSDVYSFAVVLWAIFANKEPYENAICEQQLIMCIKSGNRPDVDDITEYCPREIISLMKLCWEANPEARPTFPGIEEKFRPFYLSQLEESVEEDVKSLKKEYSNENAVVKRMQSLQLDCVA

As for `CN1C(=O)[C@@H](NC(=O)c2cc(Cc3ccccc3)on2)CC2(CC2)c2ccccc21` [Example 9, (S)-5-benzyl-N-(1-methyl-2-oxo-1,2,3,4-tetrahydrospiro[benzo[b]azepine-5,1′-cyclopropan]-3-yl)isoxazole-3-carboxamide], in data set [1] (human TNFα 10 ng/mL, viability after 48 h), the IC50 is 8 nM.
On to `CN1C(=O)[C@@H](NC(=O)c2nc(Cc3ccccc3)n[nH]2)COc2cccnc21` [Example 42, (S)-5-benzyl-N-(5-methyl-4-oxo-2,3,4,5-tetrahydropyrido[3,2-b][1,4]oxazepin-3-yl)-4H-1,2,4-triazole-3-carboxamide], for which the IC50 in data set [1] (Homo sapiens, 48 h) is 0.6 nM.
Regarding `CN1C(=O)[C@@H](NC(=O)c2nnc(Cc3ccccc3)[nH]2)[C@H]2C[C@H]2c2ccccc21` [Example 46A], in data set [2], the “Rat unbound CL” value is recorded as 188 mL/min/kg.
For `CN1C(=O)[C@@H](NC(=O)c2cc(Cc3ccccc3)on2)COc2cccnc21` [Example 142, (S)-5-Benzyl-N-(5-methyl-4-oxo-2,3,4,5-tetrahydropyrido[3,2-b][1,4]oxazepin-3-yl)isoxazole-3-carboxamide], in data set [1] (setting [3]), the IC50 came to 0.7 nM.
The same measure, in the same setting: then `CN1C(=O)[C@@H](NC(=O)c2nnc(Cc3cccc(C#N)c3)[nH]2)COc2cccnc21` [Example 161, (S)-5-(3-cyanobenzyl)-N-(5-methyl-4-oxo-2,3,4,5-tetrahydropyrido[3,2-b][1,4]oxazepin-3-yl)-4H-1,2,4-triazole-3-carboxamide], with 2 nM; and `CN1C(=O)[C@@H](NC(=O)c2nnc(Cc3cccc(C#N)c3)[nH]2)COc2ccccc21` [Example 163, (S)-5-(3-cyanobenzyl)-N-(5-methyl-4-oxo-2,3,4,5-tetrahydrobenzo[b][1,4]oxazepin-3-yl)-4H-1,2,4-triazole-3-carboxamide], with 1 nM.
As to `CN1C(=O)[C@@H](NC(=O)c2ncn(Cc3cccc(C#N)c3)n2)COc2cccnc21` [Example 171, (S)-1-(3-cyanobenzyl)-N-(5-methyl-4-oxo-2,3,4,5-tetrahydropyrido[3,2-b][1,4]oxazepin-3-yl)-1H-1,2,4-triazole-3-carboxamide], the “Rat unbound CL” value in data set [2] (male, Sprague-Dawley Crl:CD(SD)) is 32 mL/min/kg.
Take `C[C@H]1Oc2ncccc2N(C)C(=O)[C@H]1NC(=O)c1nnc(Cc2ccccc2)o1` [Example 193, 5-benzyl-N-((3S,4R)-1,4-dimethyl-2-oxo-1,2,3,4-tetrahydropyrido[2,3-b][1,4]oxazepin-3-yl)-1,3,4-oxadiazole-2-carboxamide]: the IC50 in data set [1] (setting [3]) is 210 nM.
On the same count and under the same terms, then `CN1C(=O)[C@@H](NC(=O)c2cn(Cc3ccccc3)nn2)[C@H]2C[C@H]2c2nccnc21` [Example 195, 1-benzyl-N-((7S,7aS,8aR)-5-methyl-6-oxo-5,6,7,7a,8,8a-hexahydrocyclopropa[d]pyrazino[2,3-b]azepin-7-yl)-1H-1,2,3-triazole-4-carboxamide], with 16 nM; and `CN1C(=O)[C@@H](NC(=O)c2cc(Cc3ccccc3)on2)[C@H]2C[C@H]2c2nccnc21` [Example 197, 5-benzyl-N-((7S,7aS,8aR)-5-methyl-6-oxo-5,6,7,7a,8,8a-hexahydrocyclopropa[d]pyrazino[2,3-b]azepin-7-yl)isoxazole-3-carboxamide], with 3 nM.
Same read-out and setting: then `[2H]C([2H])([2H])N1C(=O)[C@@H](NC(=O)c2nn(Cc3ccccc3)cc2F)[C@@H](C)Oc2ncccc21` [Example 205, 1-benzyl-N-((3S,4R)-1-trideuteriomethyl-4-methyl-2-oxo-1,2,3,4-tetrahydropyrido[2,3-b][1,4]oxazepin-3-yl)-4-fluoro-1H-pyrazole-3-carboxamide], with 21 nM.
For `CN1C(=O)[C@@H](NC(=O)c2nn(Cc3ccc(Cl)cn3)cc2F)COc2ccccc21` [Example 216, (S)-1-((5-chloropyridin-2-yl)methyl)-4-fluoro-N-(5-methyl-4-oxo-2,3,4,5-tetrahydrobenzo[b][1,4]oxazepin-3-yl)-1H-pyrazole-3-carboxamide], the IC50 at GST-hRIPK1 (8-327) is 0.1 to 1000 nM.
The same measure, in the same setting: then `C[C@H]1Oc2cccnc2N(C)C(=O)[C@H]1NC(=O)c1nnc(Cc2ccccc2)s1` [Example 217, 5-benzyl-N-((2R,3S)-2,5-dimethyl-4-oxo-2,3,4,5-tetrahydropyrido[3,2-b][1,4]oxazepin-3-yl)-1,3,4-thiadiazole-2-carboxamide], with 0.1 to 1000 nM.
Still for that read-out and setting: the value for `CN1C(=O)[C@@H](NC(=O)c2nnc(Cc3ccccc3)[nH]2)[C@H]2C[C@H]2c2cc(C#N)cnc21` [Example 218, 5-benzyl-N-((1aS,2S,8bR)-7-cyano-4-methyl-3-oxo-1,1a,2,3,4,8b-hexahydrocyclopropa[d]pyrido[2,3-b]azepin-2-yl)-4H-1,2,4-triazole-3-carboxamide] was 0.1 to 1000 nM; that for `CN1C(=O)[C@@H](NC(=O)c2ncc(Cc3cccc(C#N)c3)s2)CCc2cccnc21` [Example 219, (S)-5-(3-cyanobenzyl)-N-(9-methyl-8-oxo-6,7,8,9-tetrahydro-5H-pyrido[2,3-b]azepin-7-yl)thiazole-2-carboxamide] was 0.1 to 1000 nM.
Still for that read-out and setting: then `COc1cccc(Cn2cc(F)c(C(=O)N[C@H]3COc4ccccc4N(C)C3=O)n2)n1` [Example 220, (S)-4-fluoro-1-((6-methoxypyridin-2-yl)methyl)-N-(5-methyl-4-oxo-2,3,4,5-tetrahydrobenzo[b][1,4]oxazepin-3-yl)-1H-pyrazole-3-carboxamide], with 0.1 to 1000 nM; and `C[C@H]1Oc2cccnc2N(C)C(=O)[C@H]1NC(=O)c1nnc(C(F)(F)c2ccccc2)o1` [Example 221, 5-(difluoro(phenyl)methyl)-N-((2R,3S)-2,5-dimethyl-4-oxo-2,3,4,5-tetrahydropyrido[3,2-b][1,4]oxazepin-3-yl)-1,3,4-oxadiazole-2-carboxamide], with 0.1 to 1000 nM.
As to `C[C@H]1Oc2cccnc2N(C)C(=O)[C@H]1NC(=O)c1noc(Cc2ccccc2)n1` [Example 222, 5-benzyl-N-((2R,3S)-2,5-dimethyl-4-oxo-2,3,4,5-tetrahydropyrido[3,2-b][1,4]oxazepin-3-yl)-1,2,4-oxadiazole-3-carboxamide], at GST-hRIPK1 (8-327), the IC50 was 0.1 to 1000 nM.
On the same count and under the same terms, then `CN1C(=O)[C@@H](NC(=O)c2nnc(Cc3ccc(F)cc3)o2)[C@H]2C[C@H]2c2nccnc21` [Example 223, 5-(4-fluorobenzyl)-N-((7S,7aS,8aR)-5-methyl-6-oxo-5,6,7,7a,8,8a-hexahydrocyclopropa[d]pyrazino[2,3-b]azepin-7-yl)-1,3,4-oxadiazole-2-carboxamide], with 0.1 to 1000 nM.
Same read-out and setting: the value for `CN1C(=O)[C@@H](NC(=O)c2nn(Cc3ncccn3)cc2F)COc2ccccc21` [Example 224, (S)-4-fluoro-N-(5-methyl-4-oxo-2,3,4,5-tetrahydrobenzo[b][1,4]oxazepin-3-yl)-1-(pyrimidin-2-ylmethyl)-1H-pyrazole-3-carboxamide] was 0.1 to 1000 nM; that for `CN1C(=O)[C@@H](NC(=O)c2nnc(Cc3ccccc3)o2)CCc2ccccc21` [Example 225, (S)-5-benzyl-N-(1-methyl-2-oxo-2,3,4,5-tetrahydro-1H-benzo[b]azepin-3-yl)-1,3,4-oxadiazole-2-carboxamide] was 0.1 to 1000 nM; that for `CN1C(=O)[C@@H](NC(=O)c2ncc(Cc3ccccn3)o2)[C@H]2C[C@H]2c2nccnc21` [Example 226] was 0.1 to 1000 nM.
For `CN1C(=O)[C@@H](NC(=O)c2ncc(C(F)(F)c3ccccc3)o2)[C@H]2C[C@H]2c2nccnc21` [Example 227], the half-maximal inhibitory concentration (IC50) at GST-hRIPK1 (8-327) lay within 0.1 to 1000 nM.

The record behind these values is patent publication US9815850B2, “Compounds, compositions and methods” (Denali Therapeutics Inc., priority 2016, dated 2017).
